One series addresses T1, CYP2A6 (Homo sapiens, UniProt P11509).
T1 construct: Human livers, HLM141, HLM143, and HLM144 were selected from the University of Washington Human Liver Bank for this study; Microsomes were prepared; tissue University of Washington Human Liver Bank HLM141, HLM143, HLM144; host or cells: human liver microsomes
T1 sequence (P11509 1-494): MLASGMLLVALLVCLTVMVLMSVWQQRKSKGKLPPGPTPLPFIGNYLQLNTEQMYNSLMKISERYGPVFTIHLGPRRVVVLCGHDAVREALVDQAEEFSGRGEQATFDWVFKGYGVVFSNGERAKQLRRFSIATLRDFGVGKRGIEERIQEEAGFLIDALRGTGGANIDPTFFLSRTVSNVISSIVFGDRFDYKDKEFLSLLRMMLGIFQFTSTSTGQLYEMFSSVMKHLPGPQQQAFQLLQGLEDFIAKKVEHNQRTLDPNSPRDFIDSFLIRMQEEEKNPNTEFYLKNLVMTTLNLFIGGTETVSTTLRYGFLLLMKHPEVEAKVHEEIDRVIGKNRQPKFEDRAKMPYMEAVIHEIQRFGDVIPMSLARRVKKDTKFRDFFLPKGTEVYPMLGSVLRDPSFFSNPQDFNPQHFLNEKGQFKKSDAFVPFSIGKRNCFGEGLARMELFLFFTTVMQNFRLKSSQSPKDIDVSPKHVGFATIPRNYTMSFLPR
Briefly: Inhibition of CYP2A6 (7-hydroxylation of coumarin) in human liver microsomes. The following applies: probe coumarin (7-hydroxylation), 4 μM, read-out: inhibitory activity toward CYP2A6. It counts as in vitro ADME. On the procedure:
(§1) Human livers, HLM141, HLM143, and HLM144 were selected from the University of Washington Human Liver Bank for this study. […] The seven isoforms and the metabolic pathway of each of the probes used to monitor specific isoform activity are listed below.
CYP2A6: The 7-hydroxylation of coumarin (4 μM). The reaction is monitored by HPLC using florescence detection.

A further series concerns the target T2, CYP2D6 (Homo sapiens, UniProt P10635).
T2 construct: Human livers, HLM141, HLM143, and HLM144 were selected from the University of Washington Human Liver Bank for this study; Microsomes were prepared; tissue University of Washington Human Liver Bank HLM141, HLM143, HLM144; host or cells: human liver microsomes
Briefly: Inhibition of CYP2D6 (demethylation of dextromethorphan) in human liver microsomes. It counts as in vitro ADME. The note with it: probe dextromethorphan (O-demethylation), 5 μM, read-out: inhibitory activity toward CYP2D6. On the procedure: as §1
CYP2D6: The 0-demethylation of dextromethorphan (5 μM). The reaction is monitored by high performance liquid chromatography (HPLC) using florescence detection.
Background: Liver microsomes are vesicles of endoplasmic reticulum, rich in cytochrome P450 enzymes.

A further series has as its target T3, CYP2E1 (Homo sapiens, UniProt P05181).
T3 construct: Human livers, HLM141, HLM143, and HLM144 were selected from the University of Washington Human Liver Bank for this study; Microsomes were prepared; tissue University of Washington Human Liver Bank HLM141, HLM143, HLM144; host or cells: human liver microsomes
Briefly: Inhibition of CYP2E1 (p-nitrocatechol from p-nitrophenol) in human liver microsomes. The following applies: 1500 μM. In kind it is in vitro ADME. On the procedure:
as §1
CYP2E1: The formation of p-nitrocatechol from p-nitrophenol (40 μM). Amounts of product formed are monitored by HPLC.

The test system of series [1] is CYP1A2, CYP2A6, CYP2C9, CYP2C19, CYP2D6, CYP2E1, CYP3A4. In words: in vitro. The note with it: human, microsomes. The text has this:
Human livers, HLM141, HLM143, and HLM144 were selected from the University of Washington Human Liver Bank for this study. […] The actual concentrations used for each of the other probes are specified below. […] The seven isoforms and the metabolic pathway of each of the probes used to monitor specific isoform activity are listed below.

Series [2] can be described thus: Effect of gemcabene on simvastatin pharmacokinetics (active HMG-Co-A reductase inhibitor concentration). It counts as in vivo, human. The following applies: simvastatin alone vs in combination with gemcabene.
Series [3] is described as follows: Musculoskeletal adverse events, study A4141001. In kind it is in vivo, human.
In the next series the test system is fibrinogen. In words: Fibrinogen in hypercholesterolemic patients, post hoc analysis of Study A4141001. It counts as in vivo, human. The following applies: for Difference in fibrinogen change, Gem-placebo: subgroup baseline >400 mg/dL. On the procedure:
Week 0) and the end (Visit T8, Week 8). Analyses of covariance (ANCOVA) methods used in the original study A4141001 were again utilized in these analyses. For fibrinogen, baseline was defined as the last pretreatment visit, and endpoint was the last visit up to and including the day after last dose of medication. The least-squares means and p-values for change from baseline in fibrinogen were calculated using an ANCOVA model with the effects of baseline lipid value and treatment. Also, medians and p-values for percent change from baseline. […] This, consequently, was the definition for the modified intent-to treat (MITT) population.

The conditions of series [4]: gemcabene 300 and 900 mg QD with atorvastatin 80 mg QD.
The mark [5] stands for this setting: A4141001, patient type IIa + IIb.

By IC50 is commonly meant the midpoint of a concentration-inhibition curve. Lower therefore signals higher potency.

T2 sequence (P10635 whole entry): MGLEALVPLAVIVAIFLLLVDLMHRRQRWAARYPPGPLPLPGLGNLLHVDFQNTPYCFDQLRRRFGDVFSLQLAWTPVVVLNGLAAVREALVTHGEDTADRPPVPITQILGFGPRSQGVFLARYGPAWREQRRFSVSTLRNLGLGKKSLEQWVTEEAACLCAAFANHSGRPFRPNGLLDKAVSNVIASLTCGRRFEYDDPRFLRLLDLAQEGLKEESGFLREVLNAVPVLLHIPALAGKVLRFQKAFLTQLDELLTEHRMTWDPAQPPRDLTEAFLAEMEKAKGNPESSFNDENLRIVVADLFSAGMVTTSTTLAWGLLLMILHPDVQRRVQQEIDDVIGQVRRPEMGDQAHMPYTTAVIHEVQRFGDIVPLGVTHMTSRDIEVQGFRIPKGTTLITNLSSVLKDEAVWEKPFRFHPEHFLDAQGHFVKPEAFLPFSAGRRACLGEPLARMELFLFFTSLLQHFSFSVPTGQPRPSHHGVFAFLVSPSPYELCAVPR
T3 sequence (P05181 whole entry): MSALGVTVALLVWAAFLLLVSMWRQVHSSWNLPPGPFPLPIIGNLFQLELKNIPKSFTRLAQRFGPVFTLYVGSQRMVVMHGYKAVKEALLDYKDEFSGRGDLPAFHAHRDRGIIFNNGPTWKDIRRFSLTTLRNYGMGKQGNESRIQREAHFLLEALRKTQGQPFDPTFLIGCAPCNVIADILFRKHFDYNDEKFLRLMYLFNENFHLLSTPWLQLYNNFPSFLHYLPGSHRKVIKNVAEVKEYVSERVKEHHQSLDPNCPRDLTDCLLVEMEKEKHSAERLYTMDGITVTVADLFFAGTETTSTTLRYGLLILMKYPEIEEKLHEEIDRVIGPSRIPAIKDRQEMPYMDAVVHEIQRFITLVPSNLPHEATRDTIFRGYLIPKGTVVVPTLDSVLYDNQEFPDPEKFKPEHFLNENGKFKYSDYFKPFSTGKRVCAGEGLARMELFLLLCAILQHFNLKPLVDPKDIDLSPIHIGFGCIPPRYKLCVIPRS

`CC(C)(CCCCOCCCCC(C)(C)C(=O)O)C(=O)O` [Gemcabene, 6,6′-oxybis(2,2-dimethylhexanoic acid)]: the inhibition at 1500 µM on CYP2A6 and at CYP2D6 was 10 to 20% each time. On CYP2E1, the CYP2E1 activity enhanced result was “about 20%”. The same compound registered an IC50 in series [1] of more than 454 µg/mL. Further, the “effect on active HMG-Co-A reductase inhibitor pharmacokinetics after simvastatin (80 mg)” value in series [2] was “lowers Cmax but has no effect on AUC”. For the same compound, the “% = the percent of patients experiencing a musculoskeletal adverse event” value is listed as 0.0% in series [3] (A4141001, patient type IIa); 0.0% in series [3] (setting [5]); 0.0% in series [3] (A4141001, patient type IIb). In addition, the “No = the number of muscle skeletal adverse events” value in series [3] (A4141001, patient type IIa) came out at 0; in series [3] (setting [5]), 0; in series [3] (A4141001, patient type IIb), 0. Also, the “Difference in fibrinogen change = Gem − Placebo” value with fibrinogen (MITT, Gemcabene 300 mg) was −13.0. For the same compound, the figures for the “Difference in fibrinogen change, Gem-placebo” value in the series on fibrinogen (Gem 300 mg) and with fibrinogen (Gem 900 mg) were 5.0 and −34.0, respectively. Besides, the “effect on atorvastatin pharmacokinetics (Cmax, tmax, AUC(0-24), t½, atorvastatin and metabolites)” value in series [4] is listed as “no clinically important effect”.

The values above are taken from patent US9849104B2 (Gemphire Therapuetics Inc., priority 2015, dated 2017).
